Measurements published in PMC9914855, “UHPLC-MS Phenolic Fingerprinting, Aorta Endothelium Relaxation Effect, Antioxidant, and Enzyme Inhibition Activities of Azara dentata Ruiz & Pav Berries” (Foods, 2023).

What was measured:
[1] = target: acetylcholinesterase (AChE); parameters: method as in PMID 36552522; conditions: cited from earlier work
[2] = target: butyrylcholinesterase (BChE); parameters: method as in PMID 36552522; conditions: cited from earlier work
[3] = target: tyrosinase (Agaricus bisporus, UniProt C7FF04); parameters: method as in PMID 36552522; conditions: cited from earlier work
Sequence of tyrosinase (C7FF04 1-392): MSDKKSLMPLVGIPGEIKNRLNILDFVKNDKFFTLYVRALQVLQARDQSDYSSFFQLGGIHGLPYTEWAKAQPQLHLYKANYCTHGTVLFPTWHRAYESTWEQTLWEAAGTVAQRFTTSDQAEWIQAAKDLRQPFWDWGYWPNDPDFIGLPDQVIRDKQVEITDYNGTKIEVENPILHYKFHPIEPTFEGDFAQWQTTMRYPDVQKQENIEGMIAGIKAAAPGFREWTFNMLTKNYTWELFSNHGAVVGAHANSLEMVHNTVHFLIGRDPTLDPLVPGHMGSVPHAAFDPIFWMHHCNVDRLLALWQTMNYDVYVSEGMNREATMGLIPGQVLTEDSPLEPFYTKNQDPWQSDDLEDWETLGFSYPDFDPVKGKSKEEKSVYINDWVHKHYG

[4] = system: human erythrocytes; assay: Lipid peroxidation in human erythrocytes; assay type: cell-based; conditions: at 100 µg/mL
Method: The lipid peroxidation in human erythrocytes (LP) assay was performed as described in a previous study with some modifications. Human blood cells (red) were used. After washing, the cells were suspended in phosphate-buffered saline (hemoglobin density of 1 mM). The final cell suspension with different concentrations of the test compounds was incubated and dissolved in DMSO and PBS for 10 min at 37 °C. After incubation, the cells were added to tert-butylhydroperoxide (1 mM) for 15 min at 37 °C. After this, the lipid peroxidation was obtained via the TBARs’ formation. The evaluation was performed in quadruplicate, and the results are shown as the inhibition percentage (IP) of lipid peroxidation in human erythrocytes (IPLP) contrasted to the control of catechin at 100 µg/mL and reported as the average ± SD. Healthy volunteer donors gave their informed consent for inclusion before participating in the study. The protocol assay was conducted in accordance with the Declaration of Helsinki and is included in the approved project by CICIT-CA-UNSJ-Argentina (Project code 80020190100277SJ, N 0591-20-R-UNSJ), referred to as an ethical and environmental safeguard and to preserve the hygiene and safety conditions in the activities to be carried out in laboratories.

[5] = target: lipase; conditions: cited from earlier work
[6] = target: amylase; conditions: cited from earlier work
[7] = target: T1, AChE (Homo sapiens, UniProt P22303); conditions: cited from earlier work
T1 construct: purchased Merck, Darmstadt, Germany
T1 sequence (P22303 32-614): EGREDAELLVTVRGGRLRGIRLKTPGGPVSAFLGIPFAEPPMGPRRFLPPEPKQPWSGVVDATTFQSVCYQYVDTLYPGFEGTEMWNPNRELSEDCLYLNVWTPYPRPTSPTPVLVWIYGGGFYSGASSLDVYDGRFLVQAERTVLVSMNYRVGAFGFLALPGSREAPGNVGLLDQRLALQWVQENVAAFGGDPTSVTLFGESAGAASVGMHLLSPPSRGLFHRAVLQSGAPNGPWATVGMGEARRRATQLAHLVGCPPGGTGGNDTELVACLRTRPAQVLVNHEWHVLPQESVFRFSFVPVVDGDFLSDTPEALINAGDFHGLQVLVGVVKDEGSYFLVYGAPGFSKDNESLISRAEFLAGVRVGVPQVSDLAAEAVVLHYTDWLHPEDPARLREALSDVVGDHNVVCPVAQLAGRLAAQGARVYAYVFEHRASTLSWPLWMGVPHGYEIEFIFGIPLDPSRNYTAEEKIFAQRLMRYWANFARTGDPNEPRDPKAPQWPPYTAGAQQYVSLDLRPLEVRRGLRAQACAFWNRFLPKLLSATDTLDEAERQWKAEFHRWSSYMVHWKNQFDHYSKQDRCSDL

[8] = target: T2, BChE (Homo sapiens, UniProt P06276); conditions: cited from earlier work
T2 construct: purchased Merck, Darmstadt, Germany
T2 sequence (P06276 29-602, species assumed): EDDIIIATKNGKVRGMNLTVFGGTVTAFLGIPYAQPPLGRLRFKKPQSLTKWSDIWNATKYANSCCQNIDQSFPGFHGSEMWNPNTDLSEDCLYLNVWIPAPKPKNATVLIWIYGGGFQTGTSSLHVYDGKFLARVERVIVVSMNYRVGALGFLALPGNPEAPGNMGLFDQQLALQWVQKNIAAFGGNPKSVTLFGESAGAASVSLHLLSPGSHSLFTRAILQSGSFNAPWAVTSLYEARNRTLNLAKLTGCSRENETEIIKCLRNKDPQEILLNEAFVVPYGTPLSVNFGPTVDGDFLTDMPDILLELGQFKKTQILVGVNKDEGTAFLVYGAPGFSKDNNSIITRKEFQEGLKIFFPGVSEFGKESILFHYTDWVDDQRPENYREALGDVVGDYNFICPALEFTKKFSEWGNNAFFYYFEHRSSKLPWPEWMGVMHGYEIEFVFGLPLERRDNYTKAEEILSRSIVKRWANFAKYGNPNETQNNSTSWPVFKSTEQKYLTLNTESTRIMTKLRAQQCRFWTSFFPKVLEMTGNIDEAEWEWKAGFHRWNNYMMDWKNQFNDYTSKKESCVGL

[9] = parameters: method as in PMID 36552522; conditions: read-out: GI50 (cytotoxic); cited from earlier work

In the case of “2-nor-1,2-secolycoserone [2-nor-1,2-secolycoserone coumarin]”, the AChE inhibition [1] is given as 1.21 ± 0.03 µg/mL, the “BChE IC50” value [2] is given as 11.23 ± 0.02 µg/mL and the “tyrosinase IC50” value [3] is given as 103.43 ± 16.86 µg/mL.
In the case of `O.Oc1cc(O)c2c(c1)O[C@H](c1ccc(O)c(O)c1)[C@@H](O)C2` [catechin], the “IPLP (inhibition percentage of lipid peroxidation in human erythrocytes)” value [4] is reported as 70%.
In the case of `O=C(/C=C/c1ccc(O)c(O)c1)O[C@@H]1C[C@](O)(C(=O)O)C[C@@H](O)[C@H]1O` [chlorogenic acid, Chlorogenic acid], the “lipase IC50” value [5] is listed as 647 µg/mL, the “amylase IC50” value [6] is listed as 498 ± 13 µg/mL and the IC50 [7] is listed as 22.6 µM. For the same compound, the IC50 [8] was 17.8 µM.
In the case of `N.N.[Cl][Pt][Cl]` [cisplatin, reference compound], the GI50 [9] is given as 4.9 ± 0.2 µM.
For `CC1=C(CC/C(C)=C/CO)[C@]2(C)CCCC(C)(C)C2CC1` (stereo partly drawn) [ent-labda-8,13-E-diene-15-ol], the GI50 [9] is listed as 4.5 ± 0.1 µM.
